The values below are quoted from earlier work in PMC8273902 (Drug Design, Development and Therapy, 2021).

SMILES strings stand for the structures. Like-named read-outs stand apart in the source and are kept apart here. A value given as a limit tells only on which side of the number the result lay.

For this series the following is noted: humans.

In general, Vd/F refers to the volume of distribution divided by bioavailability. With `CN1CC(=O)N2[C@H](c3ccc4c(c3)OCO4)c3[nH]c4ccccc4c3C[C@@H]2C1=O` [Tadalafil, tadalafil], the Dose linearity entry is on record as “Linear”, the “Food effect on PK properties” value is given as “No significant effect”, the Tmax is given as 2 (0.5–6) h and the Vd/F is 60 to 70 L. For the same compound, under “20 mg”, the AUC0-t is on record as 8066 (20 mg) h·ng/mL, the CL/F is on record as 2.5 (20 mg) L/h and the Cmax is given as 378 (20 mg) ng/mL. Besides, the “Food effect on PK properties” value (listed as tadalafil) is “not affected by food”.

As for `CCCc1nn(C)c2c(=O)[nH]c(-c3cc(S(=O)(=O)N4CCN(C)CC4)ccc3OCC)nc12` [Sildenafil, sildenafil], the Tmax is on record as 1 (0.5–2) h, the Vd/F was above 310 L and the t1/2 is 3 to 5 h. Further, under “100 mg”, the AUC0-t was 1685 (100 mg) h·ng/mL and the Cmax is listed as 560 (100 mg) ng/mL. Under “CL, 50 mg, intravenous”, the CL is on record as 41 (CL, 50 mg, intravenous) L/h. For the same compound, the “Food effect: reduction of AUC (systemic exposure)” value (high-fat meal) is listed as 11%.
